The nature of this series: recombinant barcode read abundance after kanamycin selection (control-corrected) (log10(CPM+1)); higher = more efficient recombination; sequences stand for … in AGTGCAGAGAAAATCGGCCAGTTTTCTCTGCCTGCAGTCCGCATGCCGT…AGATTTATGCAGCGGACTGCCTTTCTCCCAAAGTGATAAACCGGACAGTATCATGGACCGGTTTTCCCGGTAATCCGTATTTGCAAGGTTGGTTTCACT; site = the 11-nt target. The method, boiled down: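 Recombination efficiency draws on barcodes counted at recombinant junctions in a pooled E. coli screen of targets paired with IS621 bridge RNA target-binding loops. The counts were converted to counts per million, averaged and corrected against the chloramphenicol/ampicillin LB agar control, then reported as log10(CPM+1). Selection plates held chloramphenicol/ampicillin/kanamycin with 0.1 mM IPTG, with two replicates per condition.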
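Also: IS621 recombinase and bridge RNA in Escherichia coli cells.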

In the case of “TCCAATCCTTGGGTTCTAACCTGTTGCAG (site TCCAAGCCTCT)”, the “recombinant barcode read abundance (log10)” value is 0.167.

Regarding “TCCAATCCTTGGGTTCTAACCTGTTGCAG (site TCCAATCCTCT)”, the “recombinant barcode read abundance (log10)” value came out at 0.381.

For “TCCACACCTTGGGTTCTAACCTGTTGCCT (site TCCACAACTAG)”, the “recombinant barcode read abundance (log10)” value was 0.122.

Regarding “TCCACACCTTGGGTTCTAACCTGTTGCCT (site TCCACACCTAG)”, the “recombinant barcode read abundance (log10)” value worked out at 0.63.

For the sequence “TCCACACCTTGGGTTCTAACCTGTTGCCT (site TCCACAGCTAG)”, the “recombinant barcode read abundance (log10)” value was found to be 0.0788.

As to “TCCACACCTTGGGTTCTAACCTGTTGCCT (site TCCACATCTAG)”, the “recombinant barcode read abundance (log10)” value was 0.0345.

Take “TCCACAGCTTGGGTTCTAACCTGTTGCCT (site TCCACAACTAG)”: the “recombinant barcode read abundance (log10)” value was determined as 0.

“TCCACAGCTTGGGTTCTAACCTGTTGCCT (site TCCACACCTAG)”: the “recombinant barcode read abundance (log10)” value worked out at 0.212.

“TCCACAGCTTGGGTTCTAACCTGTTGCCT (site TCCACAGCTAG)”: the “recombinant barcode read abundance (log10)” value stood at 0.784.

For the sequence “TCCACAGCTTGGGTTCTAACCTGTTGCCT (site TCCACATCTAG)”, the “recombinant barcode read abundance (log10)” value worked out at 0.

With “TCCAGCACTTGGGTTCTAACCTGTTGCCT (site TCCAGCACTAG)”, the “recombinant barcode read abundance (log10)” value was found to be 0.412.

Consider “TCCAGCACTTGGGTTCTAACCTGTTGCCT (site TCTGGCACTAG)”, for which the “recombinant barcode read abundance (log10)” value is 0.

Turning to “TCCAGTACTTGGGTTCTAACCTGTTGCTT (site TCCAGTACTAA)”, the “recombinant barcode read abundance (log10)” value stood at 0.0786.

On to “TCCAGTACTTGGGTTCTAACCTGTTGCTT (site TCCGGTACTAA)”, for which the “recombinant barcode read abundance (log10)” value is 0.0788.

Take “TCCATAACTTGGGTTCTAACCTGTTGCCT (site GGGGCGTCTCA)”: the “recombinant barcode read abundance (log10)” value turned out to be 0.0285.

As to “TCCATAACTTGGGTTCTAACCTGTTGCCT (site TCCATAACTAG)”, the “recombinant barcode read abundance (log10)” value came out at 0.14.

Turning to “TCCATCCCTTGGGTTCTAACCTGTTGCCT (site TCAATCCCTAG)”, the “recombinant barcode read abundance (log10)” value is 0.00792.

Take “TCCATCCCTTGGGTTCTAACCTGTTGCCT (site TCCATCCCTAG)”: the “recombinant barcode read abundance (log10)” value amounted to 0.613.

In the case of “TCCATCCCTTGGGTTCTAACCTGTTGCCT (site TCGATCCCTAG)”, the “recombinant barcode read abundance (log10)” value was 0.0154.

Take “TCCATCCCTTGGGTTCTAACCTGTTGCCT (site TCTATCCCTAG)”: the “recombinant barcode read abundance (log10)” value is 0.116.

As to “TCCCACTCTTGGGTTCTAACCTGTTGCCT (site TCACACTCTAG)”, the “recombinant barcode read abundance (log10)” value came to 0.158.

As to “TCCCACTCTTGGGTTCTAACCTGTTGCCT (site TCCCACTCTAG)”, the “recombinant barcode read abundance (log10)” value worked out at 1.56.

In the case of “TCCCACTCTTGGGTTCTAACCTGTTGCCT (site TCGCACTCTAG)”, the “recombinant barcode read abundance (log10)” value worked out at 0.0564.

Consider “TCCCACTCTTGGGTTCTAACCTGTTGCCT (site TCTCACTCTAG)”, for which the “recombinant barcode read abundance (log10)” value was determined as 0.0682.

“TCCCAGTCTTGGGTTCTAACCTGTTGCTG (site TCCCAGTCTCA)”: the “recombinant barcode read abundance (log10)” value is 0.635.

With “TCCCAGTCTTGGGTTCTAACCTGTTGCTG (site TCTCAGTCTCC)”, the “recombinant barcode read abundance (log10)” value amounted to 0.0317.

With “TCCCATACTTGGGTTCTAACCTGTTGCAT (site AGTGGACCTGG)”, the “recombinant barcode read abundance (log10)” value came out at 0.2.

As to “TCCCATACTTGGGTTCTAACCTGTTGCAT (site TCCCATACTAT)”, the “recombinant barcode read abundance (log10)” value was 0.982.

In the case of “TCCCATTCTTGGGTTCTAACCTGTTGCCT (site TCCCATACTAG)”, the “recombinant barcode read abundance (log10)” value came to 0.197.

Consider “TCCCATTCTTGGGTTCTAACCTGTTGCCT (site TCCCATCCTAG)”, for which the “recombinant barcode read abundance (log10)” value turned out to be 0.03.

As for “TCCCATTCTTGGGTTCTAACCTGTTGCCT (site TCCCATGCTAG)”, the “recombinant barcode read abundance (log10)” value was 0.0488.

For the sequence “TCCCATTCTTGGGTTCTAACCTGTTGCCT (site TCCCATTCTAG)”, the “recombinant barcode read abundance (log10)” value is 0.115.

As to “TCCCGAGCTTGGGTTCTAACCTGTTGCCT (site TCCCGAACTAG)”, the “recombinant barcode read abundance (log10)” value was 0.435.

Turning to “TCCCGAGCTTGGGTTCTAACCTGTTGCCT (site TCCCGACCTAG)”, the “recombinant barcode read abundance (log10)” value turned out to be 0.

As to “TCCCGAGCTTGGGTTCTAACCTGTTGCCT (site TCCCGAGCTAG)”, the “recombinant barcode read abundance (log10)” value came to 1.55.

With “TCCCGAGCTTGGGTTCTAACCTGTTGCCT (site TCCCGATCTAG)”, the “recombinant barcode read abundance (log10)” value is 0.119.

Regarding “TCCGAAACTTGGGTTCTAACCTGTTGCAT (site TCCGAAACTAT)”, the “recombinant barcode read abundance (log10)” value came to 1.15.

Regarding “TCCGAAACTTGGGTTCTAACCTGTTGCAT (site TCTGAAACTAG)”, the “recombinant barcode read abundance (log10)” value came out at 0.0197.

As for “TCCGAGCCTTGGGTTCTAACCTGTTGCAT (site TCCGAGCCTAC)”, the “recombinant barcode read abundance (log10)” value is 0.228.

For the sequence “TCCGAGCCTTGGGTTCTAACCTGTTGCAT (site TCCGAGCCTAT)”, the “recombinant barcode read abundance (log10)” value came to 1.98.

Turning to “TCCGCTCCTTGGGTTCTAACCTGTTGCCT (site TCCGCTACTAG)”, the “recombinant barcode read abundance (log10)” value is 0.177.

With “TCCGCTCCTTGGGTTCTAACCTGTTGCCT (site TCCGCTCCTAG)”, the “recombinant barcode read abundance (log10)” value came out at 0.323.

Take “TCCGCTCCTTGGGTTCTAACCTGTTGCCT (site TCCGCTGCTAG)”: the “recombinant barcode read abundance (log10)” value was 0.215.

In the case of “TCCGCTCCTTGGGTTCTAACCTGTTGCCT (site TCCGCTTCTAG)”, the “recombinant barcode read abundance (log10)” value was 0.0907.

Take “TCCGTACCTTGGGTTCTAACCTGTTGCCG (site TCCGTACCTCG)”: the “recombinant barcode read abundance (log10)” value is 0.814.

With “TCCGTACCTTGGGTTCTAACCTGTTGCCG (site TCCGTCCCTCA)”, the “recombinant barcode read abundance (log10)” value is 0.0904.

For “TCCGTCTCTTGGGTTCTAACCTGTTGCCA (site TCCGTCTCTCG)”, the “recombinant barcode read abundance (log10)” value is 0.233.

As for “TCCGTCTCTTGGGTTCTAACCTGTTGCCA (site TCCGTCTCTTG)”, the “recombinant barcode read abundance (log10)” value was 0.692.

Consider “TCCGTCTCTTGGGTTCTAACCTGTTGCCG (site TCCGTCTCTCG)”, for which the “recombinant barcode read abundance (log10)” value amounted to 1.13.

For “TCCGTCTCTTGGGTTCTAACCTGTTGCCG (site TCCGTCTCTTG)”, the “recombinant barcode read abundance (log10)” value is 0.0281.

Consider “TCCTAGTCTTGGGTTCTAACCTGTTGCCA (site GCCTAGTCTTG)”, for which the “recombinant barcode read abundance (log10)” value was found to be 0.405.

Consider “TCCTAGTCTTGGGTTCTAACCTGTTGCCA (site TCCTAGTCTTG)”, for which the “recombinant barcode read abundance (log10)” value was determined as 0.137.

In the case of “TCCTTAGCTTGGGTTCTAACCTGTTGCCT (site TCATTCGCTAG)”, the “recombinant barcode read abundance (log10)” value was 0.0127.

Regarding “TCCTTAGCTTGGGTTCTAACCTGTTGCCT (site TCCTTAGCTAG)”, the “recombinant barcode read abundance (log10)” value turned out to be 0.579.

On to “TCGAAACCTTGGGTTCTAACCTGTTGCCT (site TCGAAACCTAG)”, for which the “recombinant barcode read abundance (log10)” value was 0.625.

Take “TCGAAACCTTGGGTTCTAACCTGTTGCCT (site TCGAACCCTAG)”: the “recombinant barcode read abundance (log10)” value amounted to 0.0112.

On to “TCGAAACCTTGGGTTCTAACCTGTTGCCT (site TCGAAGCCTAG)”, for which the “recombinant barcode read abundance (log10)” value was 0.132.

With “TCGAAACCTTGGGTTCTAACCTGTTGCCT (site TCGAATCCTAG)”, the “recombinant barcode read abundance (log10)” value was 0.0362.

For “TCGAAGACTTGGGTTCTAACCTGTTGCCA (site CCGAAGACTAG)”, the “recombinant barcode read abundance (log10)” value stood at 0.14.

For the sequence “TCGAAGACTTGGGTTCTAACCTGTTGCCA (site TCGAAGACTTG)”, the “recombinant barcode read abundance (log10)” value stood at 0.177.

Consider “TCGAGTACTTGGGTTCTAACCTGTTGCCT (site TCGAGTACTAG)”, for which the “recombinant barcode read abundance (log10)” value stood at 0.274.

On to “TCGAGTACTTGGGTTCTAACCTGTTGCCT (site TCGAGTCCTAG)”, for which the “recombinant barcode read abundance (log10)” value was determined as 0.168.

For the sequence “TCGAGTACTTGGGTTCTAACCTGTTGCCT (site TCGAGTGCTAG)”, the “recombinant barcode read abundance (log10)” value stood at 0.034.

As to “TCGAGTACTTGGGTTCTAACCTGTTGCCT (site TCGAGTTCTAG)”, the “recombinant barcode read abundance (log10)” value is 0.404.

On to “TCGATGTCTTGGGTTCTAACCTGTTGCCT (site TCGAATTCTAG)”, for which the “recombinant barcode read abundance (log10)” value was determined as 0.174.

Take “TCGATGTCTTGGGTTCTAACCTGTTGCCT (site TCGATGTCTAG)”: the “recombinant barcode read abundance (log10)” value came to 0.706.

On to “TCGCAAGCTTGGGTTCTAACCTGTTGCCT (site TCGCAAGCTAG)”, for which the “recombinant barcode read abundance (log10)” value came out at 0.559.

For the sequence “TCGCAAGCTTGGGTTCTAACCTGTTGCCT (site TCTCCAGCTAG)”, the “recombinant barcode read abundance (log10)” value is 0.43.

For the sequence “TCGCACCCTTGGGTTCTAACCTGTTGCGA (site TCGAACCCTTC)”, the “recombinant barcode read abundance (log10)” value worked out at 1.28.

For “TCGCACCCTTGGGTTCTAACCTGTTGCGA (site TCGCACCCTTC)”, the “recombinant barcode read abundance (log10)” value was 0.571.

In the case of “TCGCACCCTTGGGTTCTAACCTGTTGCGA (site TCGGACCCTTC)”, the “recombinant barcode read abundance (log10)” value was 0.369.

For the sequence “TCGCACCCTTGGGTTCTAACCTGTTGCGA (site TCGTACCCTTC)”, the “recombinant barcode read abundance (log10)” value is 0.514.

Turning to “TCGCACGCTTGGGTTCTAACCTGTTGCCT (site TCGCACGCTAG)”, the “recombinant barcode read abundance (log10)” value came out at 0.205.

As for “TCGCACGCTTGGGTTCTAACCTGTTGCCT (site TCTCACGCTAG)”, the “recombinant barcode read abundance (log10)” value amounted to 0.541.

On to “TCGCACTCTTGGGTTCTAACCTGTTGCCT (site TCACACTCTAG)”, for which the “recombinant barcode read abundance (log10)” value was determined as 1.22.

“TCGCACTCTTGGGTTCTAACCTGTTGCCT (site TCCCACTCTAG)”: the “recombinant barcode read abundance (log10)” value was found to be 0.22.

As for “TCGCACTCTTGGGTTCTAACCTGTTGCCT (site TCGCACTCTAG)”, the “recombinant barcode read abundance (log10)” value amounted to 0.0694.

The values above are taken from the supplement of paper PMC11208160.
